Numbered stars: 1 amine (or outer) side, 2 acyl side, 3 side chain; on linkers, the order of the positions; unused ones are H or OH. Bridge positions count the residues as written; N and C are the ends. Square brackets hold non-standard residues; d marks the D form. Peptide text beside a SMILES is read from it. * marks the point of attachment. Tridecanoyl(12-Me) = CC(C)CCCCCCCCCCC(=O)*; X1 = NC(=O)CC(O)C(N[*:1])C(=O)[*:2]; NMeF = CN[CH](Cc1ccccc1)C(=O)O; NMeN = CN[CH](CC(N)=O)C(=O)O; X2 = CCC(C)CCCCCCCCCCC(=O)*
Experiments:
[1] = system: Pyrenophora teres; experiment: Leaf disc preventative test on barley, Pyrenophora teres (Net Blotch), 5-7 days after application; format: in vivo; conditions: Table 5
Protocol: Leaf disks or leaf segments of various plant species were cut from plants grown in the greenhouse. The cut leaf disks, or segments were placed in multiwell plates (24-well format) onto water agar. The leaf disks were sprayed with a test solution before inoculation with the fungal spores. Compounds to be tested were prepared as DMSO solutions (max. 10 mg/ml) which were diluted to the appropriate concentration with water plus 0.025% Tween® 20 just before spraying. The inoculated leaf disks or segments were incubated under defined conditions (temperature, relative humidity, light, etc.) according to the respective test system. A single evaluation of disease level was carried out by visual evaluation 3-9 days days after inoculation, depending on the pathosystem as indicated below. Percent disease control relative to the untreated check leaf disks or segments was then calculated.
Pyrenophora teres/Barley/Leaf Disc Preventative (Net Blotch)
Barley leaf segments cv. Hasso were placed on agar in a multiwell plate (24-well format) and sprayed with the formulated test compound diluted in water. The leaf segments were inoculated with a spore suspension of the fungus 2 days after application. The inoculated leaf segments were incubated at 20 °C and 65% rh under a light regime of 12 h light/12 h darkness in a climate cabinet and the activity of a compound was assessed as disease control compared to untreated when an appropriate level of disease damage appears in untreated check leaf segments (5-7 days after application).

[2] = system: Puccinia recondita f. sp. tritici; experiment: Leaf painting assay in wheat seedling, Puccinia recondita; format: in vivo, Puccinia recondita f. sp. tritici on wheat (variety Arina); conditions: for % reduction of fungal growth: middle segment; for control on the treated area (middle segment): up to, Table 6, Puccinia
Protocol: Wheat seedlings of the variety Riband (for Zymoseptoria tritici trials) or variety Arina (for Puccinia recondite trials) were grown in a glasshouse until 14 d after seeding. At this time, such seedlings usually have a first leaf fully emerged (designated L1), a second leaf fully emerged (L2) and a third leaf (L3) that was partially emerged and in the process of development. Using a permanent pen, two dots were applied on the second leaf such as to generate three segments of roughly equal size: Segment A (at the base), segment B (middle part) and segment C (upper part of the leaf). A stock solution of the test compound was produced in DMSO at a concentration of 10′000 ppm. […] The diluted compound was applied to the middle segment of L2 using a conventional cotton stick; the cotton stick was soaked in the diluted compound and rubbed several times on the adaxial leaf surface between the two marks. 1 day later, the complete plant was inoculated with a fungal spore suspension using a paint brush and application of the spore suspension until before run-off.
For infection with Puccinia recondita: The test plants were inoculated by spraying them with a spore suspension 1 day after application (spore suspension at 80′000 spores per ml in water supplemented with Tween® 20 at 0.1%). After an incubation period of 1 day at 20 °C and 95% rh, the inoculated test plants were kept at 20 °C and 60% rh in a greenhouse.
The three segments of the leaf were evaluated individually.

[3] = system: Microdochium nivale; experiment: Liquid culture 96-well mixture assay with malonomicin, Microdochium nivale, 72 hrs; format: cell-based; conditions: read-out: control of fungal growth (% reduction)
Protocol: (§1) A stock solution for compound of Formula I(a) was produced in DMSO (max. 10 mg/ml). Malonomicin was produced according to Law et al, 2018 (Nature Catalys is |VOL 1|DECEMBER 2018|977-984). A stock solution of malonomicin was produced in water plus 0.025% Tween® 20.
(§2) Assays to test efficacy of mixtures of the lipopeptide compound of Formula I(a) in combination with malonomicin on the control of fungal pathogens in a liquid culture assay were designed for a 96well plate as outlined in table 1:
(§3) The 96 well plate design allows to compare disease control of the mixture with disease control of the respective single compound at the same rate.
(§4) A master plate with 10× concentrated solution of the compound stock solutions diluted in water plus 0.025% Tween® 20 was prepared. The concentration of DMSO (from the stock of compound of Formula (a)) and Tween® 20 was kept constant in all cells of the master plate. 10 μl was transferred from the master plate to a 96well test plate. The nutrient broth containing the fungal spores/mycelia fragments was then added to the test plate to give an end concentration of 1× for the tested compounds (as outlined in Table 8). The test plates were incubated in the dark at 24 °C and 96% rh. The inhibition of fungal growth was determined photometrically after ca 3 days, and percent fungal growth reduction relative to the untreated check was calculated.
Microdochium nivale (EPPO Code: MONGNI)
(§5) Conidia of the fungus from cryogenic storage were directly mixed into nutrient broth (PDB: potato dextrose broth).

[4] = system: Zymoseptoria tritici; experiment: Liquid culture 96-well mixture assay with malonomicin, Zymoseptoria tritici, 72 hrs; format: cell-based; conditions: read-out: control of fungal growth (% reduction)
Protocol: as §1, §2, §3, §4
Zymoseptoria tritici (EPPO Code: SEPTTR)
as §5

CC(C)CCCCCCCCCCC(=O)NC1C(=O)NC(CC(=O)O)C(=O)NC(C(O)CC(N)=O)C(=O)NC(CO)C(=O)N(C)C(CC(N)=O)C(=O)N(C)C(Cc2ccccc2)C(=O)NC(CCC(N)=O)C(=O)NC(CCC(=O)O)C(=O)OC1C (stereo not shown) [Formula I(a)] ({Tridecanoyl(12-Me)}-TD[X1]S[NMeN][NMeF]QE; ester 1-C; configuration not given here)
% reduction of fungal growth ([1]; 0.82 ppm): 0%
% reduction of fungal growth ([1]; 2.5 ppm): 0%
% reduction of fungal growth ([1]; 7.4 ppm): 0%
% reduction of fungal growth ([1]; 22 ppm): 0%
% reduction of fungal growth ([1]; 67 ppm): 60%
% reduction of fungal growth ([1]; 200 ppm): 80%
% reduction of fungal growth ([2]; 20 ppm): 70%
% reduction of fungal growth ([2]; 200 ppm): 61%
control on the treated area (middle segment) [2]: up to 70%
inhibition of growth at 1.56 µg/mL ([3]; I(a) 1.56 ppm): 0%
inhibition of growth at 3.125 µg/mL ([3]; I(a) 3.125 ppm): 0%
inhibition of growth at 6.25 µg/mL ([3]; I(a) 6.25 ppm): 0%
inhibition of growth at 12.5 µg/mL ([3]; I(a) 12.5 ppm): 0%
inhibition of growth at 25 µg/mL ([3]; I(a) 25 ppm): 0%
inhibition of growth at 50 µg/mL ([3]; I(a) 50 ppm): 0%
inhibition of growth at 100 µg/mL ([3]; I(a) 100 ppm): 0%
inhibition of growth at 1.56 µg/mL ([4]; I(a) 1.56 ppm): 0%
inhibition of growth at 3.125 µg/mL ([4]; I(a) 3.125 ppm): 20%
inhibition of growth at 6.25 µg/mL ([4]; I(a) 6.25 ppm): 50%
inhibition of growth at 12.5 µg/mL ([4]; I(a) 12.5 ppm): 70%
inhibition of growth at 25 µg/mL ([4]; I(a) 25 ppm): 70%
inhibition of growth at 50 µg/mL ([4]; I(a) 50 ppm): 90%
inhibition of growth at 100 µg/mL ([4]; I(a) 100 ppm): 90%

NC[C@@H]1NC(=O)C(C(=O)CC(NC(=O)[C@@H](N)CO)(C(=O)O)C(=O)O)=C1O [malonomicin, {[(2S)-2-amino-3-hydroxypropanoyl]amino}{2-[(5S)-5-(aminomethyl)-4-hydroxy-2-oxo-2,5-dihydro-1H-pyrrol-3-yl]-2-oxoethyl}malonic acid]
inhibition of growth at 1 ppm ([3]; malonomicin 1.00 ppm): 20%
inhibition of growth at 3 ppm ([3]; malonomicin 3.00 ppm): 20%
inhibition of growth at 7.81 ppm ([3]; malonomicin 7.81 ppm): 20%
inhibition of growth at 15.63 ppm ([3]; malonomicin 15.63 ppm): 20%
inhibition of growth at 31.25 ppm ([3]; malonomicin 31.25 ppm): 20%
inhibition of growth at 62.5 ppm ([3]; malonomicin 62.5 ppm): 50%
inhibition of growth at 125 ppm ([3]; malonomicin 125 ppm): 90%
inhibition of growth at 250 ppm ([3]; malonomicin 250 ppm): 100%
inhibition of growth at 500 ppm ([3]; malonomicin 500 ppm): 100%
inhibition of growth at 1000 ppm ([3]; malonomicin 1000 ppm): 100%
inhibition of growth at 1 ppm ([4]; malonomicin 1.00 ppm): 0%
inhibition of growth at 3 ppm ([4]; malonomicin 3.00 ppm): 0%
inhibition of growth at 7.81 ppm ([4]; malonomicin 7.81 ppm): 0%
inhibition of growth at 15.63 ppm ([4]; malonomicin 15.63 ppm): 20%
inhibition of growth at 31.25 ppm ([4]; malonomicin 31.25 ppm): 20%
inhibition of growth at 62.5 ppm ([4]; malonomicin 62.5 ppm): 50%
inhibition of growth at 125 ppm ([4]; malonomicin 125 ppm): 70%
inhibition of growth at 250 ppm ([4]; malonomicin 250 ppm): 70%
inhibition of growth at 500 ppm ([4]; malonomicin 500 ppm): 90%
inhibition of growth at 1000 ppm ([4]; malonomicin 1000 ppm): 100%

CCC(C)CCCCCCCCCCC(=O)NC1C(=O)NC(CC(=O)O)C(=O)NC(C(O)CC(N)=O)C(=O)NC(CO)C(=O)N(C)C(CC(N)=O)C(=O)N(C)C(Cc2ccccc2)C(=O)NC(CCC(N)=O)C(=O)NC(CCC(=O)O)C(=O)OC1C (stereo not shown) [Formula I(b)] (X2-TD[X1]S[NMeN][NMeF]QE; ester 1-C; configuration not given here)
% reduction of fungal growth ([1]; 0.82 ppm): 0%
% reduction of fungal growth ([1]; 2.5 ppm): 0%
% reduction of fungal growth ([1]; 7.4 ppm): 0%
% reduction of fungal growth ([1]; 22 ppm): 0%
% reduction of fungal growth ([1]; 67 ppm): 90%
% reduction of fungal growth ([1]; 200 ppm): 90%
% reduction of fungal growth ([2]; 20 ppm): 55%
% reduction of fungal growth ([2]; 200 ppm): 67%
control on the treated area (middle segment) [2]: up to 70%

— US20260347403A1, “FUNGICIDAL COMPOUND” (priority 2022, published 2026)
